Where a name gives a salt, the structure may show the parent alone.

The target in the first assay is H2 histamine receptors (Cavia porcellus, UniProt P47747). The assay can be described thus: cell-based. Set-up: species or system guinea pig. The settings on record: vs histamine dose-response; 30 min after addition; 32° C., pH 7.4; results of three experiments.
Sequence of H2 histamine receptors (P47747 whole entry): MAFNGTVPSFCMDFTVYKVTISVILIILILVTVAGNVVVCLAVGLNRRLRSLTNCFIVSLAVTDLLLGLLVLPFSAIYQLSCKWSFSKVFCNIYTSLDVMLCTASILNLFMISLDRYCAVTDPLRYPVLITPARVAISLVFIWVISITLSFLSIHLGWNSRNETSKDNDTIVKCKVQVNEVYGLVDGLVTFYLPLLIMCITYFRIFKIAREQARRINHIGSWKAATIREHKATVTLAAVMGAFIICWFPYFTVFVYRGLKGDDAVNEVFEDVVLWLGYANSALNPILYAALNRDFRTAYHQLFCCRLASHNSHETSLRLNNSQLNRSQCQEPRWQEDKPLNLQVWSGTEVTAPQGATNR
Description: The guinea pig heart atrium test is carried out as follows:
A guinea pig right atrium is suspended at 1 g. tension (isometric) in a thermostatically controlled (32° C.) tissue bath (10 ml) containing oxygenated (95% O2 ; 5% CO2) Krebs-Haenseleit buffer (pH 7.4). The tissue is allowed to stabilize over 1 hour. Individual contractions are recorded with a force-displacement transducer through a strain gauge coupler. A control dose-response curve to histamine in the above described tissue bath is obtained after which the tissue is washed 3 times and allowed to re-equilibrate to basal rate. The test compound is added to the tissue bath at the desired final concentration. Thirty minutes after addition of the compound, a fresh histamine dose response curve is again obtained. Then the response to histamine in the presence of antagonist is compared to the histamine control response. This procedure is repeated, using fresh tissues, for each concentration of antagonist tested. […] Cimetidine is used as the standard for this test.
Turning to `O=S1(=O)N=C(NCCCOc2cccc(CN3CCCCC3)c2)c2cc(Cl)c(Cl)cc21` [Example 9, N-[3-[3-[(1-piperidinyl)methyl]phenoxy]propyl]-5,6-dichloro-1,2-benzisothiazol-3-amine 1,1-dioxide, monohydrochloride salt], the “pA2 Value (apparent dissociation constant of the H2 antagonist)” value was determined as 6.7.

In the case of `COc1ccc2c(c1)C(NCCCOc1cccc(CN3CCCCC3)c1)=NS2(=O)=O` [Example 12, N-[3-[3-[(1-piperidinyl)methyl]phenoxy]propyl]-5-methoxy-1,2-benzisothiazol-3-amine 1,1-dioxide, 2/3 oxalate, ethanolate], the “pA2 Value (apparent dissociation constant of the H2 antagonist)” value is on record as 8.0.

Staying with this assay, now noted: vs histamine dose-response; 30 min after addition; 32° C., pH 7.4; results of three experiments; read-out: pA2 Value (apparent dissociation constant of the H2 antagonist) (converted).
Take `O=S1(=O)N=C(NCCCOc2cccc(CN3CCCCC3)c2)c2ccccc21` [Example 2, N-[3-[3-[(1-piperidinyl)methyl]phenoxy]propyl]-1,2-benzisothiazol-3-amine 1,1-dioxide]: the Kb was 0.00794 µM.

Take `NC(N)=Nc1nc(CSCCNC2=NS(=O)(=O)c3ccccc32)cs1` [Example 3, [4-[[[2-[(1,2-benzisothiazol-3yl)amino]ethyl]thio]methyl]-2-thiazolyl]guanidine S',S'-dioxide]: the Kb is 0.002 µM.

Take `O=C1N=C(NCCCOc2cccc(CN3CCCCC3)c2)c2ccccc21` [Example 4, 3-[[3-[3-[(1-piperidinyl)methyl]phenoxy]propyl]amino]-1H isoindol-1-one, dihydrochloride, quarter hydrate]: the Kb is 0.251 µM.

For the compound `O=[N+]([O-])c1ccc2c(c1)S(=O)(=O)N=C2NCCCOc1cccc(CN2CCCCC2)c1` [Example 5, N-[3-[3-[(1-piperidinyl)methyl]phenoxy]propyl]-6-nitro-1,2-benzisothiazol-3-amine 1,1-dioxide, hydrochloride], the Kb is 0.0501 µM.

For the compound `Nc1ccc2c(c1)S(=O)(=O)N=C2NCCCOc1cccc(CN2CCCCC2)c1` [Example 6, N-[3-[3-[(1-piperidinyl)methyl]phenoxy]propyl]-6-amino-1,2-benzisothiazol-3-amine 1,1-dioxide], the Kb was 0.02 µM.

Consider `O=S1(=O)N=C(NCCCOc2cccc(CN3CCCCC3)c2)c2ccc(Cl)cc21` [Example 7, N-[3-[3-[(1-piperidinyl)methyl]phenoxy]propyl]-6-chloro-1,2-benzisothiazol-3-amine 1,1-dioxide, hydrochloride salt hemihydrate], for which the Kb is 0.0316 µM.

On to `O=S1(=O)N=C(NCCCOc2cccc(CN3CCCCC3)c2)c2ccc(F)cc21` [Example 8, N-[3-[3-[(1-piperidinyl)methyl]phenoxy]propyl]-6-fluoro-1,2-benzisothiazol-3-amine 1,1-dioxide], for which the Kb was 0.02 µM.

Take `Cc1ccc2c(c1)C(NCCCOc1cccc(CN3CCCCC3)c1)=NS2(=O)=O` [Example 10, N-[3-[3-[(1-piperidinyl)methyl]phenoxy]propyl]-5-methyl-1,2-benzisothiazol-3-amine 1,1-dioxide]: the Kb was 0.0501 µM.

`O=S1(=O)N=C(NCCCOc2cccc(CN3CCCCC3)c2)c2cc(Cl)ccc21` [Example 11, N-[3-[3-[(1-piperidinyl)methyl]phenoxy]propyl]-5-chloro-1,2-benzisothiazol-3-amine 1,1-dioxide, hydrochloride]: the Kb was 0.0794 µM.

For `O=S1(=O)N=C(NCCCOc2cccc(CN3CCSCC3)c2)c2ccccc21` [Example 23, N-[3-[3-[(4-thiomorpholinyl)methyl]phenoxy]propyl]-1,2-benzisothiazol-3-amine 1,1-dioxide, hydrochloride], the Kb is 0.0251 µM.

In the case of `O=S1(=O)N=C(NCCCOc2cccc(CN3CCCCCCC3)c2)c2ccccc21` [Example 26, N-[3-[3-[(octahydro-1(2H)-azocinyl)methyl]phenoxy]-propyl]-1,2-benzisothiazol-3-amine 1,1-dioxide, hydrochloride], the Kb is 0.02 µM.

With `O=S1(=O)N=C(NCCCOc2cccc(CNC3CCCCC3)c2)c2ccccc21` [Example 27, N-[3-[3-[(cyclohexylamino)methyl]phenoxy]propyl]-1,2-benzisothiazol-3-amine 1,1-dioxide, hydrochloride], the Kb is 0.0447 µM.

The values are drawn from patent publication US4490527A, “Benzo-fused heterocyclic anti-ulcer agents” (American Home Products Corporation, priority 1983, dated 1984).
